Assay results from US9663548B2, “10-α/β-D-arabinofuranosyl-undecenes as potential anti-mycobacterial agents and process for the preparation thereof” (priority 2011, dated 2017).
≈ marks a conversion by molar mass, not a printed value.

System: Mycobacterium bovis BCG
Assay: microbe, parasite or virus in culture
Format: cell-based
Conditions: for IC50: M. bovis BCG growth, 8 days incubation; for inhibition at 1 µg/mL: read-out: % Inhibition of growth of Mycobacterium Bovis BCG, at 1 μg/ml concentration
[1] = Mycobacterium tuberculosis variant bovis BCG, BCG, 192 h
[2] = Mycobacterium tuberculosis variant bovis BCG, BCG

| Structure (SMILES) | IC50 [1] [µg/mL] | MIC90 [1] [µg/mL] | inhibition at 1 µg/mL [2] [%] | also measured |
| --- | --- | --- | --- | --- |
| CO[C@H]1/C=C/O[C@@]2(C)Oc3c(C)c(O)c4c(O)c(c(/C=N/N5CCN(C)CC5)c(O)c4c3C2=O)NC(=O)/C(C)=C\C=C\[C@H](C)[C@H](O)[C@@H](C)[C@@H](O)[C@@H](C)[C@H](OC(C)=O)[C@@H]1C [Rifampicin, rifampicin, reference compound] | 0.02 (≈ 0.0243 µM) | – | – | inhibition at 0.2 µg/mL (Mycobacterium tuberculosis variant bovis BCG, BCG, read-out: % Inhibition of growth of Mycobacterium Bovis BCG, at 0.2 μg/ml): 99% |
| CC[C@@H](CO)NCCN[C@@H](CC)CO [Ethambutol, ethambutol, reference compound] | 0.2 (≈ 0.979 µM) | 2.9 (≈ 14.2 µM) | 85 | – |
| C=CCCCCCCCCCC1OC(CO)C(O)C1O (stereo not drawn) [Compound 1] | 1.1 (≈ 3.84 µM) | 15 (≈ 52.4 µM) | 48 | – |
| C=CCCCCCCCCCO [Compound 10-undecenol, 10-undecenol, reference compound] | – | – | – | inhibition of M. bovis BCG (control experiment with aglycon) (FIG. 1d, doses 0.1 to 100 μg/ml): poor inhibitor |
| C=CCCCCCCCCC[C@H]1O[C@H](CO)[C@@H](O)[C@@H]1O [Compound 2] | 0.19 (≈ 0.663 µM) | 1.6 (≈ 5.59 µM) | 85 | IC50 (listed as α-C-glycoside): 0.2 µg/mL (≈ 0.698 µM) |
| C=CCCCCCCCCCC1OC(COC2OC(CO)C(O)C2O)C(O)C1O (stereo not drawn) [Compound 4] | – | – | – | IC50: 19 µg/mL (≈ 45.4 µM); % Inhibition of growth of Mycobacterium Bovis BCG (at 1 μg/ml concentration): 28% |
